Reference: patent US20150307554A1, “NTS-POLYPLEX NANOPARTICLES SYSTEM FOR GENE THERAPY OF CANCER” (priority 2011, published 2015)

How the values were obtained:
MDA-MB-231 cells = assay: Internalization of NTS-polyplex via NTSR1 endocytosis with blocking assays, MDA-MB-231; type: cell-based, human; settings: NTS 1 μM, SR48692 500 nM, sucrose 0.45 M
Experimental: (§1) The cytoplasm was stained with calcein AM (green). Cells were analyzed by confocal multi spectral imaging system TCS-SPE (Leica Mycrosystems, Wetzlar, Germany). The fluorescence was detected under the following conditions Ex/Em: 405/430 nm for the blue channel with UV light; 488/512-573 nm for the green channel with an argon laser; and 563/563-544 for the red channel with a Helium-Neon laser. We obtained 10 to 20 consecutive optical sections of 1 μm apart in the z series.

MCF7 cells = assay: Internalization of NTS-polyplex via NTSR1 endocytosis with blocking assays, MCF7; type: cell-based, human; settings: NTS 1 μM, SR48692 500 nM, sucrose 0.45 M
Experimental: as §1

SMILES | blocking of NTS-polyplex internalization (MDA-MB-231 cells) | blocking of NTS-polyplex internalization (MCF7 cells)
COc1cccc(OC)c1-c1cc(C(=O)NC2(C(=O)O)C3CC4CC(C3)CC2C4)nn1-c1ccnc2cc(Cl)ccc12 (stereo not shown) [SR48692] | prevented the entrance of NTS-polyplex | prevented the entrance of NTS-polyplex
OC[C@H]1O[C@@](CO)(O[C@H]2O[C@H](CO)[C@@H](O)[C@H](O)[C@H]2O)[C@@H](O)[C@@H]1O [sucrose] | blocked | blocked
